Experimental data: PubChem BioAssay (NCI)
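Five compound concentrations were applied to cells in 96-well plates for 48 hours; endpoints were derived by simple linear interpolation of the resulting dose-response curve. The concentration for 50% growth inhibition is given as GI50. The concentration for full growth arrest is given as TGI.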

Tests used:
Assay in all cases: inhibition of tumour cell growth, NCI panel, 48 h
786-0 renal = tested on: 786-0 renal
A498 renal = tested on: A498 renal
A549 NSCLC = tested on: A549 NSCLC
ACHN renal = tested on: ACHN renal
BT-549 breast = tested on: BT-549 breast
CAKI-1 renal = tested on: CAKI-1 renal
CCRF-CEM leukemia = tested on: CCRF-CEM leukemia
COLO 205 colon = tested on: COLO 205 colon
DU-145 prostate = tested on: DU-145 prostate
HCC-2998 colon = tested on: HCC-2998 colon
HCT-116 colon = tested on: HCT-116 colon
HCT-15 colon = tested on: HCT-15 colon
HL-60(TB) leukemia = tested on: HL-60(TB) leukemia
HOP-62 NSCLC = tested on: HOP-62 NSCLC
HOP-92 NSCLC = tested on: HOP-92 NSCLC
HS 578T breast = tested on: HS 578T breast
HT29 colon = tested on: HT29 colon
IGROV1 ovarian = tested on: IGROV1 ovarian
K-562 leukemia = tested on: K-562 leukemia
KM12 colon = tested on: KM12 colon
LOX IMVI melanoma = tested on: LOX IMVI melanoma
M14 melanoma = tested on: M14 melanoma
MALME-3M melanoma = tested on: MALME-3M melanoma
MCF7 breast = tested on: MCF7 breast
MDA-MB-231 breast = tested on: MDA-MB-231 breast
MDA-MB-435 = tested on: MDA-MB-435
MOLT-4 leukemia = tested on: MOLT-4 leukemia
NCI-H226 lung = tested on: NCI-H226 lung
NCI-H23 lung = tested on: NCI-H23 lung

## NC(=S)N=Nc1c(O)c2ccccc2c2ccccc12
786-0 renal
  GI50: 31.7 µM
  TGI: 88.2 µM
A498 renal
  GI50: 14.9 µM
  TGI: 45.7 µM
A549 NSCLC
  GI50: 3.44 µM
  TGI: 12.1 µM
ACHN renal
  GI50: 8.07 µM
  TGI: > 100 µM
BT-549 breast
  GI50: 1.97 µM
  TGI: 4.95 µM
CAKI-1 renal
  GI50: 37.9 µM
  TGI: > 100 µM
CCRF-CEM leukemia
  GI50: 28.6 µM
  TGI: > 71.6 µM
COLO 205 colon
  GI50: 22.8 µM
  TGI: 73.6 µM
DU-145 prostate
  GI50: 1.9 µM
  TGI: 3.36 µM
HCC-2998 colon
  GI50: 36.3 µM
  TGI: > 100 µM
HCT-116 colon
  GI50: 4.35 µM
  TGI: 51.5 µM
HCT-15 colon
  GI50: 3.22 µM
  TGI: > 55.4 µM
HL-60(TB) leukemia
  GI50: 20 µM
  TGI: 46 µM
HOP-62 NSCLC
  GI50: 2.31 µM
  TGI: 7.87 µM
HOP-92 NSCLC
  GI50: 18.4 µM
  TGI: 51.6 µM
HS 578T breast
  GI50: 2.17 µM
  TGI: 7.96 µM
HT29 colon
  GI50: 19.3 µM
  TGI: > 100 µM
IGROV1 ovarian
  GI50: 27.2 µM
  TGI: > 100 µM
K-562 leukemia
  GI50: 5.98 µM
  TGI: 28.3 µM
KM12 colon
  GI50: 48.2 µM
  TGI: > 100 µM
LOX IMVI melanoma
  GI50: 2.81 µM
  TGI: 11.1 µM
M14 melanoma
  GI50: 1.78 µM
  TGI: 3.35 µM
MALME-3M melanoma
  GI50: 1.96 µM
  TGI: 3.58 µM
MCF7 breast
  GI50: 1.88 µM
  TGI: 4.54 µM
MDA-MB-231 breast
  GI50: 16.1 µM
  TGI: 60.2 µM
MDA-MB-435
  GI50: 1.85 µM
  TGI: 3.45 µM
MOLT-4 leukemia
  GI50: 33.7 µM
  TGI: > 73.5 µM
NCI-H226 lung
  GI50: 21.3 µM
  TGI: 70.1 µM
NCI-H23 lung
  GI50: 2.26 µM
